Assay results reported in US8163693B2, “Urea-containing peptides as inhibitors of viral replication” (Achillion Pharmaceuticals, Inc., priority 2007, dated 2012).

System: Hepatitis C replicon in Huh-7 cells
Test: HCV replicon assay (inhibition of HCV replicon replication, NPT ELISA readout)
Type: cell-based
Details: Hepatitis C virus, 72 h; Huh-7 HCV replicon-containing cells, three days incubation; read-out: Activity (EC50 class in an HCV replicon assay)
Method: Compounds claimed herein are tested for the ability to inhibit viral replication of the Hepatitis C replicon in cultured cells in which the HCV replicon construct has been incorporated. The HCV replicon system was described by Bartenschlager, et. al (Science, 285, pp. 110-113 (1999)). The replicon system is predictive of in vivo anti-HCV activity; compounds that are active in humans uniformly evidence activity in the replicon assay.
In this assay HCV replicon containing cells are treated with different concentrations of the test compound to ascertain the ability of the test compound to suppress replication of the HCV replicon. As a positive control, HCV replicon-containing cells are treated with different concentrations of interferon alpha, a known inhibitor of HCV replication. The replicon assay system includes Neomycin Phosphotransferase (NPT) as a component of the replicon itself in order to detect the transcription of replicon gene products in the host cell. Cells in which the HCV replicon is actively replicating have high levels of NPT; the level of NPT is proportional to HCV replication. […] The NPT level of each sample is measured using a captured ELISA.
A protocol for testing compounds for the ability to inhibit viral replication of the Hepatitis C replicon cultured cells in which the replicon construct has been incorporated, follows.
The HCV replicon contains, 5′-3′, the HCV-IRES, the neomycin phosphotransferase (neo) gene, the IRES of encephalomyocarditis virus, which directs translation of HCV sequences NS3 to NS5B, and the 3′-NTR. The sequence of the HCV replicon has been deposited in GenBank (Accession no. AJ242652).
The replicon is transfected into Huh-7 cells using standard methods such as electroporation.
The equipment and materials include, but are not limited to, Huh-7 HCV replicon-containing cells, maintenance media (DMEM (Dulbecco's modified Eagle media) supplemented with 10% FBS, L-glutamine, non-essential amino acids, penicillin (100 units/ml), streptomycin (100 micrograms/ml), and 500 micrograms/ml of Geneticin (G418), screening media (DMEM supplemented with 10% FBS, L-glutamine, non-essential amino acids, penicillin (100 units/ml) and streptomycin (100 micrograms/ml)), 96 well tissue culture plates (flat bottom), 96 well plates (U bottom for drug dilution), Interferon alpha for positive control, fixation reagent (such as methanol: acetone), primary antibody (rabbit anti-NPTII), secondary antibody: Eu-N1 1, and enhancement solution.
The cells are then seeded onto 96-well plates at a density of 6000-7500 cells/100 microliters/ well (6-7.5×10^5 cells/10 ml/plate). The plates are then incubated at 37° C. in a 5% CO2 incubator.
HCV replicon-containing cells are rinsed with once PBS once; 2 mls of trypsin are then added. Cells are incubated at 37° C. in a 5% CO2 incubator for 3-5 minutes. 10 mls of complete medium is added to stop the reaction. Cells are blown gently, put into a 15 ml tube, and spun at 1200 rpm for four minutes. The trypsin/medium solution is removed and 5 mls of medium (500 ml DMEM (high glucose)) from BRL catalog #12430-054; 50 mls 10% FBS, 5% Geneticin G418 (50 mg/ml, BRL catalog #10131-035), 5 ml MEM non-essential amino acids (100× BRL #11140-050) and 5 ml pen-strep (BRL #15140-148) is added. The cells and media are mixed carefully
Cells are plated with screening medium (500 ml DMEM (BRL #21063-029), 50 ml FBS (BRL #10082-147) and 5 ml MEM non-essential amino acid (BRL #11140-050) at 6000-7500 fcells/100 μl/well of 96 well plate (6-7.5×10^5 cells/10 ml/plate). Plates are placed into 37° C. 5% CO2 incubator overnight.
The following morning, drugs (test compounds or interferon alpha) are diluted in 96 well U bottom plates with media or DMSO/media, depending on the final concentration chosen for screening. Generally for 6 concentrations of each test compounds ranging from 10 micromolar to 0.03 micromolar are applied. […]

SMILES | EC50
CCCC(NC(=O)N1C[C@@H](Oc2cc(-c3ccccc3)nc3cc(OC)ccc23)C[C@H]1C(=O)N[C@H](C(=O)N[C@H](C(=O)OC)C1CCCCC1)C(C)(C)C)C(=O)C(=O)NC1CC1 (some centres unmarked) [Compound 41] | < 10 µM
C=CC1CC1(NC(=O)N1C[C@@H](Oc2cc(-c3ccccc3)nc3cc(OC)ccc23)C[C@H]1C(=O)NC(C(=O)N[C@H](C(=O)NC)C1CCCCC1)C(C)(C)C)C(=O)O (some centres unmarked) [Compound 42] | > 100 µM
CCCC(NC(=O)N1C[C@@H](OC(=O)N2CCc3ccccc3C2)C[C@H]1C(=O)N[C@H](C(=O)OC(C)(C)C)C(C)(C)C)C(=O)C(=O)NC1CC1 (some centres unmarked) [Compound 43] | 10 to 100 µM
CCCC(NC(=O)N1C[C@@H](OC(=O)N2CCCCC2)C[C@H]1C(=O)N[C@H](C(=O)OC(C)(C)C)C(C)(C)C)C(=O)C(=O)NC1CC1 (some centres unmarked) [Compound 44] | < 10 µM
C=CC1CC1(NC(=O)N1C[C@@H](OC(=O)N2CCCCC2)C[C@H]1C(=O)N[C@H](C(=O)OC(C)(C)C)C(C)(C)C)C(=O)OCC (some centres unmarked) [Compound 45] | < 10 µM
C=CC1CC1(NC(=O)N1C[C@@H](OC(=O)N2CCCCC2)C[C@H]1C(=O)N[C@H](C(=O)OC(C)(C)C)C(C)(C)C)C(=O)O (some centres unmarked) [Compound 46] | 10 to 100 µM
C=CC1CC1(NC(=O)N1C[C@@H](OC(=O)N2CCCCC2)C[C@H]1C(=O)N[C@H](C(=O)OC(C)(C)C)C(C)(C)C)C(=O)NS(=O)(=O)C1CC1 (some centres unmarked) [Compound 47] | < 10 µM
C=CC1CC1(NC(=O)N1C[C@@H](Oc2cc(-c3ccccc3)nc3cc(OC)ccc23)C[C@H]1C(=O)N[C@H](C(=O)N[C@H](C(=O)NC)C1CCCCC1)C(C)(C)C)C(=O)NS(=O)(=O)C1CC1 (some centres unmarked) [Compound 48] | < 10 µM

Same assay, conditions: Hepatitis C virus, 72 h; Huh-7 HCV replicon-containing cells, three days incubation; read-out: EC50 in HCV replicon assay

SMILES | EC50
CCCC(NC(=O)N1C[C@@H](OC(=O)N2CCc3ccccc3C2)C[C@H]1C(=O)N[C@H](C(=O)N[C@H](C(=O)OC)C1CCCCC1)C(C)(C)C)C(=O)C(=O)NC1CC1 (stereo partly drawn) [Compound 11, (3S,5S)-5-((S)-1-((S)-1-Cyclohexyl-2-Methoxy-2-Oxoethylamino)-3,3-Dimethyl-1-Oxobutan-2-Ylcarbamoyl)-1-(1-(Cyclopropylamino)-1,2-Dioxohexan-3-Ylcarbamoyl)Pyrrolidin-3-yl 3,4-Dihydroisoquinoline-2(1H)-Carboxylate] | ≤ 10 µM
CCCC(NC(=O)N1C[C@@H](OC(=O)N2CCc3ccccc3C2)C[C@H]1C(=O)N[C@H](C(=O)N[C@H](C(=O)NC)C1CCCCC1)C(C)(C)C)C(=O)C(=O)NC1CC1 (stereo partly drawn) [Compound 16, (3S,5S)-5-((S)-1-((S)-1-Cyclohexyl-2-(Methylamino)-2-Oxoethylamino)-3,3-Dimethyl-1-Oxobutan-2-Ylcarbamoyl)-1-(1-(Cyclopropylamino)-1,2-Dioxohexan-3-Ylcarbamoyl)Pyrrolidin-3-Yl 3,4Dihydroisoquinoline-2(1H)-Carboxylate] | < 50 µM
C=CC1CC1(NC(=O)N1C[C@@H](OC(=O)N2CCc3ccccc3C2)C[C@H]1C(=O)N[C@H](C(=O)N[C@H](C(=O)NC)C1CCCCC1)C(C)(C)C)C(=O)O (stereo partly drawn) [Compound 33, 1-((2S,4S)-2-((S)-1-((S)-1-Cyclohexyl-2-(Methylamino)-2-Oxoethylamino)-3,3-Dimethyl-1-Oxobutan-2-Ylcarbamoyl)-4-(1,2,3,4-Tetrahydroisoquinoline-2-Carbonyloxy)Pyrrolidine-1-Carboxamido)-2-Vinylcyclopropanecarboxylic Acid] | < 50 µM
C=CC1CC1(NC(=O)N1C[C@@H](OC(=O)N2CCc3ccccc3C2)C[C@@H]1C(=O)N[C@H](C(=O)N[C@H](C(=O)NC)C(CC)CC)C(C)(C)C)C(=O)O (stereo partly drawn) [Compound 38, 1-((2R,4S)-2-((S)-1-((S)-3-Ethyl-1-(Methylamino)-1-Oxopentan-2-Ylamino)-3,3-Dimethyl-1-Oxobutan-2-Ylcarbamoyl)-4-(1,2,3,4-Tetrahydroisoquinoline-2-Carbonyloxy)Pyrrolidine-1-Carboxamido)-2-Vinylcyclopropanecarboxylic Acid] | < 50 µM
CNC(=O)[C@@H](NC(=O)[C@@H]1CCCCC/C=C\CC(C(=O)C(=O)NC2CC2)NC(=O)N2C[C@@H](OC(=O)N3CCc4ccccc4C3)C[C@@H]2C(=O)N1)C1CCCCC1 (some centres unmarked) [Compound 39] | ≤ 10 µM
CNC(=O)[C@@H](NC(=O)[C@@H]1CCCCC/C=C\C2CC2(C(=O)O)NC(=O)N2C[C@@H](OC(=O)N3CCc4ccccc4C3)C[C@@H]2C(=O)N1)C1CCCCC1 (some centres unmarked) [Compound 40] | ≤ 10 µM
